Source: patent publication US6603023B2 (priority 1996, dated 2003)
Read-outs that look alike come from different tables or passages of the source. Marks after values point to notes of the source that are not given here.

Tests used:
[1] = system: human ovarian UL3-C tumor; assay: UL3-C ovarian tumor xenograft
CCRF-CEM/VBL = CCRF-CEM/VBL xenograft in nude mice, i.v. 6 h infusion; format: in vivo
Text: Treatment on days 19, 21, 23, 25, 27, 39, 41, 43, 45, 47 and 53.

B16 Melanoma = format: in vivo, B6D2F1 mice
[2] = Stability in human plasma (HPLC); format: in vitro ADME
Procedure: Sample Preparation. To 300 microliters of spiked plasma are added 30 microliters of methanol. The mixture is agitated and allowed to stand for 2 minutes. Then 600 microliters of methanol are added. The mixture is centrifuged. The supernatant is removed for analysis by HPLC. Analyses were performed under the following chrmotographic conditions: Column: Nova-Pak C18, 15 cm. Eluant: 50% acetonitrile/water with 0.8% triethylamine, 0.2% phosphoric acid. Detection: UV (250 nm).

[3] = system: MDR human mammary adenocarcinoma MCF-7/Adr xenograft; assay: in vivo; conditions: for toxicity: dEpoB 35 mg/kg Q2Dx5 i.p.
Procedure: DMSO was used as a vehicle for epothilones. Each mouse received ≦40 μL DMSO in all experiments.
Athymic nude mice (nu/nu) were used for MX-1 and MCF-7/Adr human mammary carcinoma xenografts. Mice were obtained from Taconic Laboratory Animals and Service (Germantown, N.Y.: outbred, Swiss background).

[4] = Toxicity in normal nude mice; format: in vivo, athymic nude mice; conditions: for body weight course: dEpoB 25 mg/kg daily i.p. for 4 days; for mice died / survived: desoxyepothilone B 25 mg/kg QDx4 i.p.
Procedure: For in vivo studies, paclitaxel in Cremophor-EtOH was further diluted with DMSO as needed. Vinblastine sulfate (Velban) (Eli Lilly & Co. Indianapolis, Ind.), and doxorubicin or adriamycin HCl (DX or Adr) (Pharmacia, Columbus, Ohio) in saline were diluted with DMSO as needed. DMSO was used as a vehicle for epothilones. Each mouse received ≦40 μL DMSO in all experiments.
The toxicity of EpoB and dEpoB was compared in normal athymic nude mice on the daily i.p. schedule. EpoB at 0.6 mg/kg, QDX4, i.p. led to lethality in all eight mice. […] Similar leukopenia was found with paclitaxel. Some obstructive fecal mass in the large intestine was noted following Epo treatments in the preliminary study.

[5] = UL3-C Ovary, dEpoB 30 mg/kg Q2D x 5, Taxol 15 mg/kg Q2D x 5
[6] = dEpoB 30, Taxol 20 mg/kg, i.v. infusions on day 19,21,23,25,27
[7] = CCRF/VBL Leukemia, dEpoB 30 mg/kg Q2D x 5, Taxol 15 mg/kg Q2D x 5
[8] = 10 mg/kg QD × 8 from day 1, day 5
[9] = 10 mg/kg QD × 8 from day 1, day 7
[10] = 10 mg/kg QD × 8 from day 1, day 9
[11] = 10 mg/kg QD × 8 from day 1, day 11
[12] = 35 mg/kg i.p. Q2Dx5 from day 8, day 11
[13] = 35 mg/kg i.p. Q2Dx5 from day 8, day 13
[14] = 35 mg/kg i.p. Q2Dx5 from day 8, day 15
[15] = 35 mg/kg i.p. Q2Dx5 from day 8, day 17

C/C1=C/C[C@@H](/C(C)=C/c2csc(C)n2)OC(=O)C[C@H](O)C(C)(C)C(=O)[C@H](C)[C@@H](O)[C@@H](C)CCC1 [Desoxyepothilone B, desoxyepothilone B]
Lowest Average Tumor Size (T/C) [1, 5]: 0.03 T/C | Tumor Disappearance [1, 5]: 0 | Therapeutic Effects dEpoB vs Taxol ([1]; UL3-C Ovary, dEpoB 30 mg/kg Q2D x 5 vs Taxol 15 mg/kg Q2D x 5): ≧ | Average Body Weight (change), Day 33 [1, 6]: -2.7 g | Average Body Weight Change, Day 27 [1, 6]: -1.5 g | Average Body Weight Change, Day 29 [1, 6]: -4.0 g | Average Body Weight Change, Day 31 [1, 6]: -3.6 g | Average Tumor Size (T/C), Day 27 [1, 6]: 0.19 T/C | Average Tumor Size (T/C), Day 29 [1, 6]: 0.13 T/C | Average Tumor Size (T/C), Day 31 [1, 6]: 0.03 T/C | Average Tumor Size (T/C), Day 33 [1, 6]: 0.03 T/C | Average Body Weight, Day 19 ([1]; initial weight, dEpoB 30, Taxol 20 mg/kg, i.v. infusions on day 19,21,23,25,27): 30.0 g | Therapeutic effect Rank Order (CCRF-CEM/VBL; CCRF-CEM/VBL, i.v. infusion): dEpoB >>> Taxol ® | Lowest Average Tumor Size (T/C) (CCRF-CEM/VBL; [7]): 0 T/C | Tumor Disappearance (CCRF-CEM/VBL; [7]): 2/2 | Therapeutic Effects dEpoB vs Taxol (CCRF-CEM/VBL; CCRF/VBL Leukemia, dEpoB 30 mg/kg Q2D x 5 vs Taxol 15 mg/kg Q2D x 5): >>> | # Mice Died (B16 Melanoma; 10 mg/kg QD × 8 from day 1): 0/6 | Average weight change (B16 Melanoma; 10 mg/kg QD × 8 from day 1, day 3): -0.7 g | Average Tumor Volume (T/C) (B16 Melanoma; [8]): 0.23 | Average weight change (B16 Melanoma; [8]): -0.9 g | Average Tumor Volume (T/C) (B16 Melanoma; [9]): 0.22 | Average weight change (B16 Melanoma; [9]): -1.1 g | Average Tumor Volume (T/C) (B16 Melanoma; [10]): 0.51 | Average weight change (B16 Melanoma; [10]): -1.5 g | Average Tumor Volume (T/C) (B16 Melanoma; [11]): 0.28 | Average weight change (B16 Melanoma; [11]): -0.3 g | mice died (B16 Melanoma; 10 mg/kg QDx8 from day 1 (FIG. 44)): 0 of 8 | # Mice Died (B16 Melanoma; 20 mg/kg QD1-4,7-8): 0/6 | Average weight change (B16 Melanoma; 20 mg/kg QD1-4,7-8, day 3): -1.3 g | Average Tumor Volume (T/C) (B16 Melanoma; 20 mg/kg QD1-4,7-8, day 5): 0.59 | Average weight change (B16 Melanoma; 20 mg/kg QD1-4,7-8, day 5): -2.2 g | Average Tumor Volume (T/C) (B16 Melanoma; 20 mg/kg QD1-4,7-8, day 7): 0.63 | Average weight change (B16 Melanoma; 20 mg/kg QD1-4,7-8, day 7): -1.3 g | Average Tumor Volume (T/C) (B16 Melanoma; 20 mg/kg QD1-4,7-8, day 9): 0.58 | Average weight change (B16 Melanoma; 20 mg/kg QD1-4,7-8, day 9): -1.6 g | Average weight change (B16 Melanoma; 20 mg/kg QD1-4,7-8, day 11): -0.8 g | Therapeutic effect Rank Order (B16 Melanoma; mouse, in vivo, ip): dEpoB > Taxol ® >> EpoB | half-life in human plasma [2]: about 75 hours | Toxicity Death ([3]; 35 mg/kg i.p. Q2Dx5 from day 8): 0/8 | Average Body Weight Change [3, 12]: 0.3 g | Average Tumor Size (T/C) [3, 12]: 0.31** | Average Body Weight Change [3, 13]: +0.7 g | Average Tumor Size (T/C) [3, 13]: 0.27*** | Average Body Weight Change [3, 14]: +0.6 g | Average Tumor Size (T/C) [3, 14]: 0.30*** | Average Body Weight Change [3, 15]: +0.8 g | Average Tumor Size (T/C) [3, 15]: 0.34* | tumor size reduction ([3]; 35 mg/kg, day 17): 66% | therapeutic outcome ([3]; 6 hr i.v. infusion, Q2Dx5): far better than Taxol®, although Q2Dx5 did not achieve a cure | toxicity ([3]; listed as dEpoB): negligible toxicity | toxicity ([3]; listed as desoxyepothilone B): no reduction in body weight or apparent toxicity | Average Body Weight (change), Day 14 ([3]; mouse, in vivo): -2.7 g | Average Body Weight (change), Day 16 ([3]; mouse, in vivo): -4.0 g | Average Body Weight (change), Day 18 ([3]; mouse, in vivo): -4.5 g | Average Body Weight, Day 8 ([3]; mouse, in vivo): 30.3 g | Average Tumor Size (T/C), Day 14 ([3]; mouse, in vivo): 0.16*** T/C | Average Tumor Size (T/C), Day 16 ([3]; mouse, in vivo): 0.15 T/C | Average Tumor Size (T/C), Day 18 ([3]; mouse, in vivo): 0.13*** T/C | Lowest Average Tumor Size (T/C) ([3]; mouse, in vivo): 0.11 T/C | Therapeutic Effects dEpoB vs Taxol ([3]; mouse, in vivo): >> | Toxicity Death ([3]; mouse, in vivo): 0/3 | Tumor Disappearance ([3]; mouse, in vivo): 0 | Therapeutic effect Rank Order ([3]; mouse, in vivo, ip): dEpoB >> Camptothecin > | Therapeutic effect Rank Order ([3]; mouse, in vivo, iv): dEpoB >> VP-16, | Died ([4]; 25 mg/kg QD × 4, 6 mice): 0 | Disappearance Duration ([4]; 25 mg/kg QD × 4, 6 mice): 0 | Number of mice died ([4]; 25 mg/kg, QD × 4, i.p., 6 mice): 0 | decrease in lymphocytes ([4]; EpoB 0.6 mg/kg or dEpoB 25 mg/kg, QDx4, i.p., preliminary): 43% | body weight course ([4]; listed as dEpoB): maintained approximately the same average body weight | body weight course ([4]; listed as desoxyepothilone B): no reduction in average body weight | mice died / survived ([4]; 6 mice): all six mice survived | mice died / survived ([4]; 6 mice, listed as dEpoB): zero of six
